Experimental data: ChEMBL document CHEMBL1201862, “PubChem BioAssay data set” (2004)
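All cell lines were grown in 96-well plates and treated with compound for 48 hours. GI50: concentration for 50% inhibition of growth.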 Activity calls are given as the source filed them. Cut-off read from the data, not from the text of the source: active = GI50 up to about 1.1 µM and inactive = higher.

Tests used:
Experiment in all cases: NCI-60 cell line screen, 48 h
[1] = system: 786-0
[2] = system: A549
[3] = system: BT-549
[4] = system: CAKI-1
[5] = system: DU-145
[6] = system: HCT-116
[7] = system: HOP-62
[8] = system: HT-29
[9] = system: Malme-3M
[10] = system: NCI-H23
[11] = system: NCI-H460
[12] = system: OVCAR-4
[13] = system: SF-295
[14] = system: SR
[15] = system: T47D
[16] = system: TK-10
[17] = system: UACC-62
[18] = system: UO-31

Measured: GI50

c1c[nH]c(CN2CCOCC2)n1
inactive: [1] > 100 µM | [2] > 100 µM | [3] > 100 µM | [4] > 100 µM | [5] > 100 µM | [6] > 100 µM | [7] > 100 µM | [8] > 100 µM | [9] > 100 µM | [10] > 100 µM | [11] > 100 µM | [12] > 100 µM | [13] > 100 µM | [14] > 100 µM | [15] > 100 µM | [16] > 100 µM | [17] > 100 µM | [18] > 100 µM

CCCCOCOc1ccccc1P1(=O)COc2ccccc2OC1
inactive: [1] > 100 µM | [2] 88.5 µM | [3] 41.5 µM | [4] > 100 µM | [5] > 100 µM | [6] 62.5 µM | [7] > 100 µM | [8] > 100 µM | [9] > 100 µM | [10] > 100 µM | [11] 58.3 µM | [12] 42.2 µM | [13] 60.5 µM | [14] 37.1 µM | [15] 45.4 µM | [16] 20.8 µM | [17] 66.2 µM | [18] 38.7 µM

COC(=O)c1cc2c(cc1Cl)Sc1nnc(Nc3ccccc3)n1S2(=O)=O
inactive: [1] 4.18 µM | [2] 8.47 µM | [3] 4.46 µM | [4] 2.42 µM | [5] 1.66 µM | [6] 3.61 µM | [7] 2.15 µM | [8] 2.4 µM | [9] 3.03 µM | [10] 2.34 µM | [11] 10 µM | [12] 3.37 µM | [13] 3.78 µM | [14] 2.74 µM | [15] 1.59 µM | [16] 2.69 µM | [17] 3.99 µM | [18] 2.48 µM

O=C1CC(C(=O)O)Cc2c(Br)ccc(O)c21 (stereo not drawn)
inactive: [1] > 100 µM | [2] > 100 µM | [3] > 100 µM | [4] > 100 µM | [5] > 100 µM | [6] > 100 µM | [7] > 100 µM | [8] > 100 µM | [9] > 100 µM | [10] > 100 µM | [11] > 100 µM | [12] > 100 µM | [13] > 100 µM | [14] 43.7 µM | [15] > 100 µM | [16] > 100 µM | [17] > 100 µM | [18] > 100 µM

CCCCCCCCCCCC(=O)Oc1c(Cl)cc(Cl)c(OC(=O)C(=O)Oc2c(Cl)cc(Cl)c(OC(=O)CCCCCCCCCCC)c2Cl)c1Cl
inactive: [1] > 100 µM | [2] > 100 µM | [3] > 100 µM | [4] > 100 µM | [5] > 100 µM | [6] > 100 µM | [7] > 100 µM | [8] > 100 µM | [9] > 100 µM | [10] > 100 µM | [11] > 100 µM | [12] > 100 µM | [13] > 100 µM | [14] > 100 µM | [15] > 100 µM | [16] > 100 µM | [17] > 100 µM | [18] > 100 µM

Clc1ccc(CCNC2(c3cc4ccccc4s3)CCCCC2)cc1Cl
inactive: [1] 18.1 µM | [2] 47.8 µM | [3] 28.2 µM | [4] 29.5 µM | [5] 32.9 µM | [6] 12.4 µM | [7] 28.2 µM | [8] 10 µM | [9] 19.5 µM | [10] 26.5 µM | [11] 14.8 µM | [12] 33.3 µM | [13] 28.7 µM | [14] 11.9 µM | [15] 20.2 µM | [16] 20.8 µM | [17] 17.7 µM | [18] 16.6 µM

Cc1nc2ccccc2n1CCc1nc2ccccc2s1
inactive: [1] 42.7 µM | [2] 23.8 µM | [3] > 100 µM | [4] > 100 µM | [5] 70.5 µM | [6] 25.9 µM | [7] > 100 µM | [8] 21.1 µM | [9] 17.3 µM | [10] 30 µM | [11] 31.2 µM | [12] 42.3 µM | [13] 8.49 µM | [14] 11.6 µM | [15] 7.21 µM | [16] 45.4 µM | [17] 60.8 µM | [18] 1.93 µM

COc1ccc(/N=C/C=C/Nc2ccc(OC)cc2)cc1
inactive: [1] 4 µM | [2] 12.1 µM | [3] 4.18 µM | [4] 3.78 µM | [5] 18.7 µM | [6] 3.66 µM | [7] 5.78 µM | [8] 2.88 µM | [9] 11.4 µM | [10] 19.6 µM | [11] 13.3 µM | [12] 5.24 µM | [13] 7.98 µM | [14] 3.85 µM | [15] 15 µM | [16] 11.8 µM | [17] 13.7 µM | [18] 5.64 µM

Cc1ccc(-n2cc(-c3ccc(Cl)cc3)c3c(NNC(=S)NCc4ccccc4)ncnc32)cc1
inactive: [1] 9.77 µM | [2] 4 µM | [3] 17.9 µM | [4] 5.46 µM | [5] 24.9 µM | [6] 4.66 µM | [7] 16.6 µM | [8] 14.3 µM | [9] 20.3 µM | [10] 13.5 µM | [11] 2.07 µM | [12] 17.5 µM | [13] 6.76 µM | [14] 3.61 µM | [15] 24.8 µM | [16] 11.1 µM | [17] 18.1 µM | [18] 10.1 µM

CN1C(=O)C2(c3ccccc31)C1CC3C(CO1)C1C2C3(CO)CN1C#N (stereo not drawn)
inactive: [1] > 100 µM | [2] > 100 µM | [3] > 100 µM | [4] > 100 µM | [5] > 100 µM | [6] > 100 µM | [7] > 100 µM | [8] > 100 µM | [9] > 100 µM | [10] > 100 µM | [11] > 100 µM | [12] > 100 µM | [13] > 100 µM | [14] > 100 µM | [15] > 100 µM | [16] > 100 µM | [17] > 100 µM | [18] > 100 µM

Oc1cc(O)c2c(c1)OC(c1ccc(O)c(O)c1)C(OC1(c3cc(O)c(O)c(O)c3)Oc3cc(O)cc(O)c3C(O)C1O)C2 (stereo not drawn)
inactive: [1] 25.7 µM | [2] 27.7 µM | [3] 26.8 µM | [4] 29.8 µM | [5] > 49 µM | [6] 24.6 µM | [7] 24 µM | [8] 18.1 µM | [9] 87.9 µM | [10] 20.9 µM | [11] 18.4 µM | [12] 26.4 µM | [13] 33.1 µM | [14] 29.2 µM | [15] 37.6 µM | [16] > 100 µM | [17] 37.6 µM | [18] 18 µM
